Patent US20260216294A1, “BETA 2-ADRENERGIC RECEPTOR AGONISTS FOR TREATMENT OR PREVENTION OF MUSCLE WASTING” (ATROGI AB, priority 2023, published 2026)

Key:
L6-myotubes [1] = assay: Measurement of intracellular cAMP levels in differentiated L6-myotubes (Biological Example 3); format: cell-based; settings: 0.25 h
Summary of the method: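 Serum-starved differentiated L6 myotubes stimulated 15 min with test compound at 1×10^−5 M final (isoprenaline as reference) in HBSS with 1% BSA, 5 mM HEPES, 1 mM IBMX, pH 7.4. Cells EtOH-extracted, lysed, and intracellular cAMP measured by AlphaScreen.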

L6-myotubes [2] = assay: Glucose uptake in differentiated L6-myotubes (Biological Example 2); format: cell-based; settings: read-out: Biological example 2 (GU)
Summary of the method: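 Differentiated L6 myotubes were serum-starved overnight in 0.5% fatty-acid-free BSA and then stimulated with compound or isoprenaline at 1×10^−5 M final. After 1 h 40 min cells were washed and re-dosed in glucose-free medium. Twenty minutes later, uptake of 50 nM ^3H-2-deoxyglucose over 10 min was measured by scintillation counting of NaOH lysates.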

[3] = intracellular cAMP, compound at 10 μM relative to isoproterenol at 10 μM
[4] = glucose uptake, compound at 10 μM relative to isoproterenol at 10 μM
[5] = intracellular cAMP in differentiated L6-myotubes, compound at 10 μM, activity relative to isoproterenol at 10 μM
[6] = glucose uptake in differentiated L6-myotubes, compound at 10 μM, activity relative to isoproterenol at 10 μM

| Compound | Emax at 10 µM (L6-myotubes [1]; [3]) [%] | Emax at 10 µM (L6-myotubes [2]; [4]) [%] | Emax at 10 µM (L6-myotubes [1]; [5]) [%] | Emax at 10 µM (L6-myotubes [2]; [6]) [%] |
| --- | --- | --- | --- | --- |
| CC12CCC([C@H](O)c3cncc(F)c3)(CC1)N2 [Compound 185, (R)-(5-fluoro-3-pyridyl)(4-methyl-7-azabicyclo[[2.2.1]]hept-1-yl)methanol] | < 25 | > 75 | – | – |
| O[C@@H](CNCC[C@H]1CC[C@H](OCc2ccccc2)CC1)c1cccc(F)c1 [Compound 288, (R)-1-(m-fluorophenyl)-2-{2-[(1r,4R)-4-(benzyloxy)cyclohexyl]ethylamino}-1-ethanol] | – | – | < 25 | 25 to 50 |
| CC(=O)N[C@H]1CC[C@@H](CNC[C@H](O)c2cncc(F)c2)CC1 [Compound 310] | – | – | < 25 | 25 to 50 |
| CO[C@H]1CC[C@H](C[C@@H]2CC[C@H]([C@H](O)c3cncc(F)c3)N2)CC1 [Compound 333] | – | – | < 25 | 25 to 50 |
| CC(C)(C[C@H]1CC[C@@H](C(=O)O)CC1)NC[C@H](O)c1cccc(F)c1 [Compound 331, (1S,4s)-4-{2-[(R)-2-(m-fluorophenyl)-2-hydroxyethylamino]-2-methylpropyl} cyclohexanecarboxylic acid] | – | – | < 25 | 25 to 50 |
| CC12CC(C1)[C@H]([C@@H](O)c1cccc(Cl)c1)N2 [Compound 208] | – | – | < 25 | 50 to 75 |
| CC12CCC([C@H](O)c3ccccc3F)(CC1)N2 [Compound 181, (R)-(o-fluorophenyl)(4-methyl-7-azabicyclo[[2.2.1]]hept-1-yl)methanol] | < 25 | > 75 | – | – |
| CS(=O)(=O)N(Cc1ccccc1)CC12CCC([C@H](O)c3cccc(F)c3)(CC1)N2 [Compound 537, (R)-(4-{[(benzyl)-N-mesylamino]methyl}-7-azabicyclo[[2.2.1]]hept-1-yl)(m-fluorophenyl)methanol] | – | – | 25 to 50 | 50 to 75 |
| CC(C)(CC[C@H]1CC[C@@H](C(=O)O)CC1)NC[C@H](O)c1cncc(F)c1 [Compound 347, (1S,4s)-4-{3-[(R)-2-(5-fluoro-3-pyridyl)-2-hydroxyethylamino]-3-methylbutyl} cyclohexanecarboxylic acid] | – | – | < 25 | > 75 |
| CC1(C)CCC([C@H](O)c2ccccc2F)N1 (stereo in doubt) [Compound 175, (R)-[(R)-5,5-dimethyl-2-pyrrolidinyl](o-fluorophenyl)methanol] | 25 to 50 | > 75 | – | – |
| CC1(C)CC[C@H]([C@@H](O)c2cccc(N)c2F)N1 [Compound 226, (S)-[(R)-5,5-dimethyl-2-pyrrolidinyl](3-amino-2-fluorophenyl)methanol] | – | – | < 25 | 25 to 50 |
| CC1(C)C[C@H]([C@H](O)c2ccccc2F)N1 [Compound 204, (R)-[(R)-4,4-dimethyl-2-azetidinyl](o-fluorophenyl)methanol] | – | – | 25 to 50 | > 75 |
| CCC[C@H]1CCC[C@H]([C@@H](O)c2cccc(O)c2)N1 [Compound 155] | < 25 | < 25 | – | – |
| CCCCNCC(O)c1ccc(F)c(NC(C)=O)c1F (stereo not shown) [Compound 42, N-{3-[2-(butylamino)-1-hydroxyethyl]-2,6-difluorophenyl}acetamide] | < 25 | 25 to 50 | – | – |
| CC1(C)C[C@H]([C@@H](O)c2ccccc2F)N1 [Compound 203, (S)-[(R)-4,4-dimethyl-2-azetidinyl](o-fluorophenyl)methanol] | – | – | < 25 | 25 to 50 |
| CC1(C)CC[C@H]([C@@H](O)c2ccccc2F)N1 [Compound 174, (S)-[(R)-5,5-dimethyl-2-pyrrolidinyl](o-fluorophenyl)methanol] | < 25 | < 25 | – | – |

| Compound | Emax at 10 µM (L6-myotubes [1]; [3]) [%] | Emax at 10 µM (L6-myotubes [2]; [4]) [%] | Emax at 10 µM (L6-myotubes [1]; [5]) [%] | Emax at 10 µM (L6-myotubes [2]; [6]) [%] |
| --- | --- | --- | --- | --- |
| O[C@@H](c1cccc(F)c1)[C@H]1CCC2(CCCC2)N1 [Compound 169] | < 25 | < 25 | – | – |
| Oc1ccc(C(O)CNCCCC2CC2)cc1 (stereo not shown) [Compound 30, 2-(3-cyclopropylpropylamino) -1-(p-hydroxyphenyl)-1-ethanol] | < 25 | > 75 | – | – |
| O[C@@H](CNCC[C@H]1CC[C@H](O)CC1)c1cncc(F)c1 [Compound 294, (R)-1-(5-fluoro-3-pyridyl)-2-{2-[(1r,4R)-4-hydroxycyclohexyl]ethylamino}-1-ethanol] | – | – | < 25 | 25 to 50 |
| O[C@@H](CNCCC[C@H]1CC[C@@H](OCc2ccccc2)CC1)c1cncc(F)c1 [Compound 275, (R)-1-(5-fluoro-3-pyridyl)-2-{3-[(1s,4R)-4-(benzyloxy)cyclohexyl]propylamino}-1-ethanol] | – | – | < 25 | 50 to 75 |
| CO[C@H]1CC[C@@H](CCC(C)(C)NC[C@H](O)c2cccc(F)c2)CC1 [Compound 264, (R)-2-{1,1-dimethyl-3-[(1s,4R)-4-methoxycyclohexyl]propylamino}-1-(m-fluorophenyl)-1-ethanol] | – | – | 25 to 50 | > 75 |
| CCCCNC[C@H](O)c1csc(N)n1 [Compound 71, (S)-1-(2-amino-1,3-thiazol-4-yl)-2-(butylamino)-1-ethanol] | < 25 | 25 to 50 | – | – |
| COc1ccc(C[C@H]2CC[C@H]([C@@H](O)c3cncc(F)c3)N2)cc1 [Compound 380, (S)-{(2R,5R)-5-[(p-methoxyphenyl)methyl]-2-pyrrolidinyl}(5-fluoro-3-pyridyl)methanol] | – | – | < 25 | > 75 |
| CCC[C@H]1CCC[C@@H]([C@H](O)c2cccc(F)c2)N1 [Compound 120] | < 25 | 50 to 75 | – | – |
| O[C@@H](c1cccc(F)c1)C12CCC(COCc3ccc(F)cc3)(CC1)N2 [Compound 438, (S)-(m-fluorophenyl)(4-{[(p-fluorophenyl)methoxy]methyl}-7-azabicyclo[[2.2.1]]hept-1-yl)methanol] | – | – | < 25 | < 25 |
| CC(=O)N[C@H]1CC[C@@H](CNC[C@H](O)c2cccc(F)c2)CC1 [Compound 307] | – | – | < 25 | 50 to 75 |
| CCCCNCC(O)c1cc(Cl)c(O)c(Cl)c1 (stereo not shown) [Compound 23, 2-(butylamino)-1-(3,5-dichloro-4-hydroxyphenyl)-1-ethanol] | < 25 | < 25 | – | – |
| CCCC(C)NCC(O)c1ccc(O)c(Cl)c1 (stereo not shown) [Compound 19, 1-(3-chloro-4-hydroxyphenyl)-2-(1-methylbutylamino)-1-ethanol] | < 25 | 25 to 50 | – | – |
| CCCCNC[C@H](O)c1ccc(F)c(O)c1 [Compound 85, (R)-2-(butylamino)-1-(4-fluoro-3-hydroxyphenyl)-1-ethanol] | < 25 | > 75 | – | – |
| CC(C)(NC[C@H](O)c1cncc(F)c1)[C@H]1CC[C@@H](C(=O)O)CC1 [Compound 323, (1S,4s)-8-[(R)-2-(5-fluoro-3-pyridyl)-2-hydroxyethylamino]-7-hydroxy-p-menthan-7-one] | – | – | 50 to 75 | 25 to 50 |
| CC12CCC([C@@H](O)c3cccc(F)c3)(CC1)N2 [Compound 178, (S)-(m-fluorophenyl)(4-methyl-7-azabicyclo[[2.2.1]]hept-1-yl)methanol] | < 25 | 25 to 50 | – | – |
| CCC(C)NCC(O)c1ccc(O)cc1 (stereo not shown) [Compound 5, 2-(sec-butylamino)-1-(p-hydroxyphenyl)-1-ethanol] | < 25 | 50 to 75 | – | – |
